Source: patent US4471131A, “Novel silyl esters of N-phosphonomethylglycine” (Monsanto Company, priority 1983, dated 1984)

Assays:
Assay in all cases: post-emergence herbicidal activity, greenhouse
Format in all cases: in vivo
Soybean = conditions: Table III, formulated in anhydrous tetrahydrofuran
Method in brief: (§1)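 Plants grown two to three weeks in greenhouse soil pans were atomizer-sprayed with test chemical in spray containing about 0.4% emulsifier, at the listed rates. Injury relative to unsprayed controls observed at approximately two and four weeks after treatment.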

Velvetleaf = test system: Velvetleaf
Method in brief: as §1

Common Lambsquarters = test system: Common Lambsquarters
Method in brief: as §1

Johnsongrass = conditions: Table II
Method in brief: as §1

Hemp Sesbania = conditions: Table III, formulated in anhydrous tetrahydrofuran
Method in brief: as §1

Barnyardgrass = test system: Barnyardgrass
Method in brief: as §1

Quackgrass = conditions: Table II
Method in brief: (§2)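 After sowing in soil-filled pans and growing under greenhouse conditions, plants at two to three weeks were sprayed post-emergence with the test compound in a formulation containing approximately 0.4% emulsifier by weight. Observations of plant injury, relative to controls, followed at about two and four weeks.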

Panicum Spp = conditions: Table III, formulated in anhydrous tetrahydrofuran
Method in brief: as §1

Yellow Nutsedge = conditions: Table II
Method in brief: as §2

[1] = Table II, 2 WAT, 5.6 kg/h, formulated in anhydrous tetrahydrofuran
[2] = Table II, 2 WAT, 11.2 kg/h, formulated in anhydrous tetrahydrofuran
[3] = Table II, 4 WAT, 11.2 kg/h, formulated in anhydrous tetrahydrofuran
[4] = Table III, 2 WAT, 1.1 kg/h, formulated in anhydrous tetrahydrofuran
[5] = Table III, 2 WAT, 5.6 kg/h, formulated in anhydrous tetrahydrofuran
[6] = Table III, 2 WAT, .28 kg/h, formulated in anhydrous tetrahydrofuran
[7] = Table III, 4 WAT, 5.6 kg/h, formulated in anhydrous tetrahydrofuran
[8] = 2 WAT, 5.6 kg/h, formulated in anhydrous tetrahydrofuran
[9] = 2 WAT, 11.2 kg/h, formulated in anhydrous tetrahydrofuran
[10] = 4 WAT, 11.2 kg/h, formulated in anhydrous tetrahydrofuran

CC(C)(C)[Si](OP(=O)(O)CNCC(=O)O)(c1ccccc1)c1ccccc1 [Ex. 5, Glycine, N-((([(1,1-Dimethylethyl)Diphenylsilyl]oxy)-Hydroxyphosphinyl)-Methyl)-,]
1 (25-49% inhibition): Plant Response Index (L) (Soybean; 2 WAT, 1.1 kg/h) | Plant Response Index (L) (Soybean; 2 WAT, 5.6 kg/h) | Plant Response Index (L) (Soybean; 2 WAT, .28 kg/h) | Plant Response Index (C) (Velvetleaf; Table II, 2 WAT, 11.2 kg/h) | Plant Response Index (E) (Common Lambsquarters; Table II, 2 WAT, 5.6 kg/h) | Plant Response Index (E) (Common Lambsquarters; Table II, 2 WAT, 11.2 kg/h) | Plant Response Index (E) (Common Lambsquarters; [7]) | Plant Response Index (I) (Johnsongrass; 2 WAT, 11.2 kg/h) | Plant Response Index (I) (Johnsongrass; 4 WAT, 5.6 kg/h) | Plant Response Index (K) (Barnyardgrass; Table II, 2 WAT, 11.2 kg/h) | Plant Response Index (K) (Barnyardgrass; [2]) | Plant Response Index (H) (Quackgrass; 4 WAT, 11.2 kg/h) | Plant Response Index (G) (Yellow Nutsedge; 2 WAT, 11.2 kg/h) | Plant Response Index (G) (Yellow Nutsedge; 4 WAT, 5.6 kg/h)
0 (0-24% inhibition): Plant Response Index (L) (Soybean; 4 WAT, 5.6 kg/h) | Plant Response Index (C) (Velvetleaf; Table II, 2 WAT, 5.6 kg/h) | Plant Response Index (C) (Velvetleaf; [1]) | Plant Response Index (C) (Velvetleaf; [2]) | Plant Response Index (C) (Velvetleaf; Table II, 4 WAT, 5.6 kg/h) | Plant Response Index (C) (Velvetleaf; Table II, 4 WAT, 11.2 kg/h) | Plant Response Index (C) (Velvetleaf; [3]) | Plant Response Index (C) (Velvetleaf; [4]) | Plant Response Index (C) (Velvetleaf; [5]) | Plant Response Index (C) (Velvetleaf; [6]) | Plant Response Index (C) (Velvetleaf; [7]) | Plant Response Index (E) (Common Lambsquarters; [1]) | Plant Response Index (E) (Common Lambsquarters; [2]) | Plant Response Index (E) (Common Lambsquarters; Table II, 4 WAT, 5.6 kg/h) | Plant Response Index (E) (Common Lambsquarters; [3]) | Plant Response Index (E) (Common Lambsquarters; [4]) | Plant Response Index (E) (Common Lambsquarters; [5]) | Plant Response Index (E) (Common Lambsquarters; [6]) | Plant Response Index (I) (Johnsongrass; 2 WAT, 5.6 kg/h) | Plant Response Index (I) (Johnsongrass; [8]) | Plant Response Index (I) (Johnsongrass; [9]) | Plant Response Index (I) (Johnsongrass; [10]) | Plant Response Index (R) (Hemp Sesbania; 2 WAT, 1.1 kg/h) | Plant Response Index (R) (Hemp Sesbania; 2 WAT, 5.6 kg/h) | Plant Response Index (R) (Hemp Sesbania; 2 WAT, .28 kg/h) | Plant Response Index (R) (Hemp Sesbania; 4 WAT, 5.6 kg/h) | Plant Response Index (K) (Barnyardgrass; Table II, 2 WAT, 5.6 kg/h) | Plant Response Index (K) (Barnyardgrass; [1]) | Plant Response Index (K) (Barnyardgrass; Table II, 4 WAT, 5.6 kg/h) | Plant Response Index (K) (Barnyardgrass; [3]) | Plant Response Index (K) (Barnyardgrass; [4]) | Plant Response Index (K) (Barnyardgrass; [5]) | Plant Response Index (K) (Barnyardgrass; [6]) | Plant Response Index (K) (Barnyardgrass; [7]) | Plant Response Index (H) (Quackgrass; 2 WAT, 5.6 kg/h) | Plant Response Index (H) (Quackgrass; [8]) | Plant Response Index (H) (Quackgrass; 2 WAT, 11.2 kg/h) | Plant Response Index (H) (Quackgrass; [9]) | Plant Response Index (H) (Quackgrass; 4 WAT, 5.6 kg/h) | Plant Response Index (H) (Quackgrass; [10]) | Plant Response Index (S) (Panicum Spp; 2 WAT, 1.1 kg/h) | Plant Response Index (S) (Panicum Spp; 2 WAT, 5.6 kg/h) | Plant Response Index (S) (Panicum Spp; 2 WAT, .28 kg/h) | Plant Response Index (S) (Panicum Spp; 4 WAT, 5.6 kg/h) | Plant Response Index (G) (Yellow Nutsedge; 2 WAT, 5.6 kg/h) | Plant Response Index (G) (Yellow Nutsedge; [8]) | Plant Response Index (G) (Yellow Nutsedge; [9]) | Plant Response Index (G) (Yellow Nutsedge; [10])
2 (50-74% inhibition): Plant Response Index (E) (Common Lambsquarters; Table II, 4 WAT, 11.2 kg/h) | Plant Response Index (I) (Johnsongrass; 4 WAT, 11.2 kg/h) | Plant Response Index (K) (Barnyardgrass; Table II, 4 WAT, 11.2 kg/h) | Plant Response Index (G) (Yellow Nutsedge; 4 WAT, 11.2 kg/h)
